In paper PMC11357990, “A first-in-class selective inhibitor of EGFR and PI3K offers a single-molecule approach to targeting adaptive resistance” (Nature Cancer, 2024):

Experiments:
PI3Kγ = PI3Kγ (Homo sapiens, UniProt P48736); experiment: X-ray cocrystal structure ([…] Å); purified kinase assay IC50; format: biochemical; parameters: gene PIK3CG; S144-A1102
mTOR = target: T1, mTOR (Homo sapiens, UniProt P42345); experiment: biochemical; parameters: Purified kinase inhibition, Z'-LYTE (HER, mTOR, DNA-PK) or Adapta (PI3K), ATP at Km apparent
T1 construct: Km ATP
Procedure: (§1) IC50 values were determined at a concentration of ATP corresponding to the Km apparent for that kinase.

HER2 = target: T2, HER2 (Homo sapiens, UniProt P04626); experiment: biochemical; parameters: Purified kinase inhibition, Z'-LYTE (HER, mTOR, DNA-PK) or Adapta (PI3K), ATP at Km apparent
T2 construct: gene ERBB2; Km ATP
T2 sequence (P04626 whole entry): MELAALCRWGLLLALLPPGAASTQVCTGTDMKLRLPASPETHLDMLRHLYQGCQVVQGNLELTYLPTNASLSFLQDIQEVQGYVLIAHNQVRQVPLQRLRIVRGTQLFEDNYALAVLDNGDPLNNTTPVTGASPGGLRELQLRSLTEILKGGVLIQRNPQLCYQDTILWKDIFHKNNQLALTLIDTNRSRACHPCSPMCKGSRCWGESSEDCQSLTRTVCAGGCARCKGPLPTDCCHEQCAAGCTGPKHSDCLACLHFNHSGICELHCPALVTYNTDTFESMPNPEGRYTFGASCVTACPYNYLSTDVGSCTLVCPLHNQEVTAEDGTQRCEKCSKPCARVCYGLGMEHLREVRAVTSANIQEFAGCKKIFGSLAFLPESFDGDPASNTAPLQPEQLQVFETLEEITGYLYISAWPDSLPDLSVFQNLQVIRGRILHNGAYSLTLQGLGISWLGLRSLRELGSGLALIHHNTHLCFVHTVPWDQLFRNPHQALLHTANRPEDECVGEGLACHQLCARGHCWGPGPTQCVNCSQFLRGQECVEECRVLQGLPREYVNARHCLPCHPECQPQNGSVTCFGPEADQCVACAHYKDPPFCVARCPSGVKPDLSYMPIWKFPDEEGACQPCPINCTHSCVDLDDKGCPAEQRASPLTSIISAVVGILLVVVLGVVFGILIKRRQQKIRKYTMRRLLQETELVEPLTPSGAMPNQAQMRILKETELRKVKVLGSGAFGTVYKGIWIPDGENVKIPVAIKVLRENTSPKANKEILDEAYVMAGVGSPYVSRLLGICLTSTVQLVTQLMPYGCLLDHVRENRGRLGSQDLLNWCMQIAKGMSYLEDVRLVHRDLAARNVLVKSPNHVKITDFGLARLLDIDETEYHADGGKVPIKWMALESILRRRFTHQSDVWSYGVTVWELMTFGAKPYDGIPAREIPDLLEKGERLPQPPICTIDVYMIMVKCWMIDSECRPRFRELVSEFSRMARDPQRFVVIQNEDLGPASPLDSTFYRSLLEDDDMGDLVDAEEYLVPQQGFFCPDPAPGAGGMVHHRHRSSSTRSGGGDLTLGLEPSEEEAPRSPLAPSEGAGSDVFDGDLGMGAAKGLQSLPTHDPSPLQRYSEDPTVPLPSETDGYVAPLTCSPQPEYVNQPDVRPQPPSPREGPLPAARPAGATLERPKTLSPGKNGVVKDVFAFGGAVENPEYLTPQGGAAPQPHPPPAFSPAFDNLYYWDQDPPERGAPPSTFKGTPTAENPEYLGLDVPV
Procedure: as §1

HER4 = target: T3, HER4 (Homo sapiens, UniProt Q15303); experiment: biochemical; parameters: Purified kinase inhibition, Z'-LYTE (HER, mTOR, DNA-PK) or Adapta (PI3K), ATP at Km apparent
T3 construct: gene ERBB4; Km ATP
Procedure: as §1

PI3Kβ = target: T4, PI3Kβ (Homo sapiens, UniProt P42338); experiment: biochemical; parameters: Purified kinase inhibition, Z'-LYTE (HER, mTOR, DNA-PK) or Adapta (PI3K), ATP at Km apparent
T4 construct: gene PIK3CB; Km ATP
Procedure: as §1

EGFR = EGFR (Homo sapiens, UniProt P00533); experiment: X-ray cocrystal structure ([…] Å); purified kinase assay IC50; format: biochemical; parameters: G696-G1022
Sequence of EGFR (P00533 696-1022): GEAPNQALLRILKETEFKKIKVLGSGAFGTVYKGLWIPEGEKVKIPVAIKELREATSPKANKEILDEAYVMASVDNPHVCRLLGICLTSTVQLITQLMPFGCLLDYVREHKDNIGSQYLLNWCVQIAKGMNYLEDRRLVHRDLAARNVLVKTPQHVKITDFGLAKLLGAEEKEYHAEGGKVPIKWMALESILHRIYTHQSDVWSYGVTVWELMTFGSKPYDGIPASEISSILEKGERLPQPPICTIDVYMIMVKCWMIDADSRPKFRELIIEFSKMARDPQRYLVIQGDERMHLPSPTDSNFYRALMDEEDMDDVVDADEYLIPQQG

[1] = target: T5, RARalpha (h) (agonist radioligand) (Homo sapiens, UniProt P10276); experiment: biochemical; settings: read-out: Binding / ================================================= / % Inhibition of Control Specific Binding
T5 construct: gene RARA
T5 sequence (P10276 whole entry): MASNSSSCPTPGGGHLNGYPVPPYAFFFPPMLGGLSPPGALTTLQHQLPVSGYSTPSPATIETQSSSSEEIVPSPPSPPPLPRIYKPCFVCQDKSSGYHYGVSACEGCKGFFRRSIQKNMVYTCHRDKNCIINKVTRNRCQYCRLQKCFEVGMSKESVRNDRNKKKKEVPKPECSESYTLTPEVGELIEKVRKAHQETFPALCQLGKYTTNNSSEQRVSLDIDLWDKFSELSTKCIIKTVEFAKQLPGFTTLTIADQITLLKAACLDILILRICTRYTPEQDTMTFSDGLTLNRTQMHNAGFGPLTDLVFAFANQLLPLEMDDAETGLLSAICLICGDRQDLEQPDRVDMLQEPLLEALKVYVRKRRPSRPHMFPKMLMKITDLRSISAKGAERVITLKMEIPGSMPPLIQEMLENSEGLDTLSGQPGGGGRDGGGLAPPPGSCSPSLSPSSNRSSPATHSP

[2] = target: T6, D2S (h) (agonist radioligand) (Homo sapiens, UniProt P14416); experiment: biochemical; settings: read-out: Binding / ================================================= / % Inhibition of Control Specific Binding
T6 construct: gene DRD2

[3] = target: T7, CCK2 (CCKB) (h) (agonist radioligand) (Homo sapiens, UniProt P32239); experiment: biochemical; settings: read-out: Binding / ================================================= / % Inhibition of Control Specific Binding
T7 construct: gene CCKBR
T7 sequence (P32239 whole entry): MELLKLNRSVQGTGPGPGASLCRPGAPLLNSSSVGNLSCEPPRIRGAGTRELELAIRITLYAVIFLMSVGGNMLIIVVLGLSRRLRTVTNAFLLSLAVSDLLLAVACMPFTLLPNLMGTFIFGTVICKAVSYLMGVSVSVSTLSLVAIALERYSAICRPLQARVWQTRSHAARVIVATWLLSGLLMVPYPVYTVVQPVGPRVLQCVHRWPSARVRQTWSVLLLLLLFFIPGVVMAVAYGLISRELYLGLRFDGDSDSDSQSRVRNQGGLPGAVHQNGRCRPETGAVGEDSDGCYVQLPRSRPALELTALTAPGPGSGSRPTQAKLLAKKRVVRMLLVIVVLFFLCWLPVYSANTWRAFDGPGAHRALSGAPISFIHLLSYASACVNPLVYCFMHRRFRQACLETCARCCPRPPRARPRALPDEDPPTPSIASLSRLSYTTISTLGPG

[4] = target: CXCR2 (IL-8B) (h) (agonist radioligand) (Homo sapiens, UniProt P25025); experiment: biochemical; settings: read-out: Binding / ================================================= / % Inhibition of Control Specific Binding
[5] = target: AR(h) (agonist radioligand) (Homo sapiens, UniProt P10275); experiment: biochemical; settings: read-out: Binding / ================================================= / % Inhibition of Control Specific Binding
[6] = target: T8, CB2 (h) (agonist radioligand) (Homo sapiens, UniProt P34972); experiment: biochemical; settings: read-out: Binding / ================================================= / % Inhibition of Control Specific Binding
T8 construct: gene CNR2

[7] = target: T9, D1 (h) (antagonist radioligand) (Homo sapiens, UniProt P21728); experiment: biochemical; settings: read-out: Binding / ================================================= / % Inhibition of Control Specific Binding
T9 construct: gene DRD1
T9 sequence (P21728 whole entry): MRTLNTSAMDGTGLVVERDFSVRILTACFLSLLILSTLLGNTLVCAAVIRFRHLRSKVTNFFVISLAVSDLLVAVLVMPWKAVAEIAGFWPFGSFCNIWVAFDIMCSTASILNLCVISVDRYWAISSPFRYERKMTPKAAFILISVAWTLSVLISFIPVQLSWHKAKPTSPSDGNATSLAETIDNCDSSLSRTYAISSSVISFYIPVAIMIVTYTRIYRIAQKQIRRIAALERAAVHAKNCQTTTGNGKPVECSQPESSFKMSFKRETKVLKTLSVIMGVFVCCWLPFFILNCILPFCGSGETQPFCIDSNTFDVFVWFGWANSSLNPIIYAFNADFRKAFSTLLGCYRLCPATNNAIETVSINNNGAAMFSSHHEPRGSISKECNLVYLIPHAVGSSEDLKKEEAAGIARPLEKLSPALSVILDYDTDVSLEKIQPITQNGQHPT

PI3Kα = PI3Kα (Homo sapiens, UniProt P42336); experiment: biochemical kinase assay at ATP Km apparent; parameters: gene PIK3CA
Sequence of PI3Kα (P42336 whole entry): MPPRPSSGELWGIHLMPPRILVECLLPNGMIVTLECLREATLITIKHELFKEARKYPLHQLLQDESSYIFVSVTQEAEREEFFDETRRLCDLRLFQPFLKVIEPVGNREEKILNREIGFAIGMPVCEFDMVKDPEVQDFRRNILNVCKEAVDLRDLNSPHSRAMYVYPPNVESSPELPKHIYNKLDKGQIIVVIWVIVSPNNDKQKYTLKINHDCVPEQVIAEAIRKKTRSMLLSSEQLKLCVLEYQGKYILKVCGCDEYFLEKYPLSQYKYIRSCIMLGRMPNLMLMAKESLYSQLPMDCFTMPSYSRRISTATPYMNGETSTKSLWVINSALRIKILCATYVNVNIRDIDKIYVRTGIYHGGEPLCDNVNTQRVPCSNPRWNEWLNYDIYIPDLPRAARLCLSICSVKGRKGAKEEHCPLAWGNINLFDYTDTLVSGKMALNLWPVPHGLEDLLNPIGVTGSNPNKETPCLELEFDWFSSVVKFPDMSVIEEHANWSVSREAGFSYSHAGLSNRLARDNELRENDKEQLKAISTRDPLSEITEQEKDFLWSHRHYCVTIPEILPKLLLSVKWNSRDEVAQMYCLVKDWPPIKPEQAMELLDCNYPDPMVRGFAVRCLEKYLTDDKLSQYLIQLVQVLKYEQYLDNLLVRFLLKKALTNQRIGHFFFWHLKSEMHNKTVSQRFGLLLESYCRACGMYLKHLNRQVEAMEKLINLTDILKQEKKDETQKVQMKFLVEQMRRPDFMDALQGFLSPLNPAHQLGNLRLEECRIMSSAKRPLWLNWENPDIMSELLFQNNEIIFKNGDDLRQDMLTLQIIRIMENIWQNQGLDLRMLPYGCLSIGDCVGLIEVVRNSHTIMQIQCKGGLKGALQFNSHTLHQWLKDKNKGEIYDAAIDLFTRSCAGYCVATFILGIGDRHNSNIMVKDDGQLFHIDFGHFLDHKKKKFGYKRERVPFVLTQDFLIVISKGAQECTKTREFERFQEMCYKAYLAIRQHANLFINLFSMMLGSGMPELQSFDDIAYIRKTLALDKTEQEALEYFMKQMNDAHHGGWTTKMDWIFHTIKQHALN

Sequence of PI3Kγ (P48736 144-1102): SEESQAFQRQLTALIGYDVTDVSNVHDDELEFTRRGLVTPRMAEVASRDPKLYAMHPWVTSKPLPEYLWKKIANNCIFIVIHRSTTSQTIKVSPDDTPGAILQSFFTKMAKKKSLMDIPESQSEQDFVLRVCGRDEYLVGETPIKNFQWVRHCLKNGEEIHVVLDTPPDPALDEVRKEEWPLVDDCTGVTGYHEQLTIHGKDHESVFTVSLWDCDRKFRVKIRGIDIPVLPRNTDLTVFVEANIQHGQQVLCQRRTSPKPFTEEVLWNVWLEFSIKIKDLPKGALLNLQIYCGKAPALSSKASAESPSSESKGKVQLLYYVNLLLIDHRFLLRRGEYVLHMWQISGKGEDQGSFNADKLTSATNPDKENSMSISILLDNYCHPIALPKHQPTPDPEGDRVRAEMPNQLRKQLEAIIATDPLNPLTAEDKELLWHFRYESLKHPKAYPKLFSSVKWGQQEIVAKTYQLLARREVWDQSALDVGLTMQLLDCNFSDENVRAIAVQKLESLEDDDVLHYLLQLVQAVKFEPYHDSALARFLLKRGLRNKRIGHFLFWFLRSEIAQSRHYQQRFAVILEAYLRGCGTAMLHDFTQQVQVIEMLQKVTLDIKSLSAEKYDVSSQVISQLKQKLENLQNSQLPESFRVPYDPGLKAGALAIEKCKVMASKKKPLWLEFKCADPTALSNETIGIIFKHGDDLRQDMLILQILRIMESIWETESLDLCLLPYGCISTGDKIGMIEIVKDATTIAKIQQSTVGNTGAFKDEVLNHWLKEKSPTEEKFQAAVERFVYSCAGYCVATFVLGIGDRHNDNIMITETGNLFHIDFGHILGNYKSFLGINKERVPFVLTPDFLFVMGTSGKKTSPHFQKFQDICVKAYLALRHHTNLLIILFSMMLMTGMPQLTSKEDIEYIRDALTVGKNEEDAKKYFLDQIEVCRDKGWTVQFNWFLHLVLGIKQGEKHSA

Compound: C[C@@H](Nc1ncnc2ccc(-c3cnc(Cl)c(NS(C)(=O)=O)c3)cc12)c1ccccc1 [MTX-531, (R)-N-(2-chloro-5-(4-((1-phenylethyl)amino)quinazolin-6-yl)pyridin-3-yl)methane-sulfonamide]
- IC50 (PI3Kγ): 8.3 nM
- IC50 (mTOR): 105 nM
- IC50 (HER2): 2500 nM
- IC50 (HER4): > 10000 nM
- IC50 (PI3Kβ): 233 nM
- IC50 (EGFR): 14.7 nM
- inhibition at 10 µM [1]: 4%
- inhibition at 10 µM [2]: -4%
- inhibition at 10 µM [3]: -8%
- inhibition at 10 µM [4]: 4%
- inhibition at 10 µM [5]: -1%
- inhibition at 10 µM [6]: 39%
- inhibition at 10 µM [7]: 2%
- IC50 (PI3Kα): 6.4 nM
